According to ChEMBL document CHEMBL1159372, “Two flavone C-glycosides from the style of Zea mays with glycation inhibitory activity” (J Nat Prod, 2003):

Assay: Inhibition of advanced glycation end product formation at 1 mM after 7 days by fluorescence assay
Type: physicochemical
Conditions: 168 h, 1000 µM

inhibition (INH) | Structure (SMILES)
64.2% | COc1cc(-c2cc(=O)c3c(O)c([C@H]4C[C@@H](O)[C@H](O)[C@H](C)O4)c(O)cc3o2)ccc1O
53% | COc1cc(-c2cc(=O)c3c(O)c([C@H]4C[C@@H](O)[C@H](O)[C@H](C)O4)c(O[C@@H]4O[C@H](CO)[C@@H](O)[C@H](O)[C@H]4O)cc3o2)ccc1O

Structure (SMILES) | inhibition (INH)
N=C(N)NN [PIMAGEDINE] | 60.5%
